# Results reported in PMC11279551, “Pharmacokinetics and Enterohepatic Circulation of 2-(Quinoline-8-carboxamido)benzoic Acid (2-QBA) in Mice” (Pharmaceutics, 2024).
# Tests used:
# [1] = Intestinal permeability in Ussing chamber; assay type: in vitro ADME, mice; settings: mouse, pH 7.4; range over intestinal segments, n = 3; read-out: permeability of marker compounds
# Method: The small intestines were isolated from fasted mice under isoflurane anesthesia (1–3% with oxygen gas flow) and dissected into three parts, the jejunum, upper ileum, and lower ileum. […] The intestinal permeability of 2-QBA was assessed by adding 0.5 mL of HBSS containing 20 μM of 2-QBA on the donor side and 0.5 mL of fresh HBSS on the receiver side. Then, a 100 μL aliquot was withdrawn from the receiver side every 30 min for 2 h and an equal volume of pre-warmed fresh HBSS was added to replenish the lost volume. To analyze the 2-QBA, 100 μL aliquots were mixed with 4 volumes of IS solution (1 ng/mL berberine in acetonitrile). The mixture was vigorously vortexed for 5 min and then centrifuged at 13,000× g for 5 min. The supernatant was transferred to autosampler vials. Subsequently, a 3 μL aliquot was injected into the LC-MS/MS system.
# [2] = PO 6.25~50 mg/kg; cited from earlier work
SMILES,Papp [1] [×10⁻⁶ cm/s],time within which multiple peaks appeared [2] [h]
"CC(C)NCC(O)COc1cccc2ccccc12 (centres unmarked) [propranolol, reference compound]",10 to 22.5,
O=c1c(-c2ccc(O)cc2)coc2cc(O)cc(O)c12 [genistein],,≤ 6
